Assay results published in the supplement of paper PMC11061612.

Assays:
[1] = compound: C=CCn1c(=O)c2cnc(Nc3ccc(N4CCN(C)CC4)cc3)nc2n1-c1cccc(C(C)(C)O)n1 [AZD1775]; conditions: max 3 µM
In short: (§1)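 Following 24 hours at 37°C and 5% CO2, cancer cell lines in 1536-well plates with 7.5 μl DMEM/F12 or RPMI and 10% FBS were dosed for 72 hours, final DMSO typically being 0.2%. CellTiter-Glo 2.0 luminescence, scaled between blank-well and DMSO-well means, gave the viability readout. Dose responses were fitted to a two-parameter logistic curve with a non-linear mixed effects model, and the single-agent IC50 was derived from this fit.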

[2] = compound: C[C@@H]1COCCN1C2=NC(=NC(=C2)C3(CC3)[S@](=N)(=O)C)C4=C5C=CNC5=NC=C4 [AZD6738]; conditions: max 10 µM
In short: as §1

[3] = compound: Cc1nc(-c2cn3c(n2)-c2ccc(-c4cnn(C(C)(C)C(N)=O)c4)cc2OCC3)n(C(C)C)n1 [Taselisib]; conditions: max 10 µM
In short: as §1

[4] = compound: Nc1ccn([C@@H]2O[C@H](CO)[C@@H](O)C2(F)F)c(=O)n1 [Gemcitabine]; conditions: max 0.3 µM
In short: as §1

[5] = compound: CC(=O)O[C@H]1C(=O)[C@@]2(C)[C@H]([C@H](OC(=O)c3ccccc3)[C@]3(O)C[C@H](OC(=O)[C@H](O)[C@@H](NC(=O)c4ccccc4)c4ccccc4)C(C)=C1C3(C)C)[C@]1(OC(C)=O)CO[C@@H]1C[C@@H]2O [Paclitaxel]; conditions: max 3 µM
In short: as §1

[6] = compound: Cc1cc2ncnn2cc1Nc1ncc2c(n1)n(C1CCOCC1)c(=O)n2C [AZD7648]; conditions: max 10 µM
In short: as §1

[7] = compound: CN(CC[C@H](CSC1=CC=CC=C1)NC2=C(C=C(C=C2)S(=O)(=O)NC(=O)C3=CC=C(C=C3)N4CCC(CC4)[C@H](C5=CC=CC=C5C6=CC=C(C=C6)Cl)O)S(=O)(=O)C(F)(F)F)CCO [AZD4320]; conditions: max 1 µM
In short: as §1

[8] = compound: CC1(C)CCC(CN2CCN(c3ccc(C(=O)NS(=O)(=O)c4ccc(NCC5CCOCC5)c([N+](=O)[O-])c4)c(Oc4cnc5[nH]ccc5c4)c3)CC2)=C(c2ccc(Cl)cc2)C1 [Venetoclax]; conditions: max 1 µM
In short: as §1

[9] = compound: C1CC(C1)(C(=O)[O-])C(=O)[O-].N.N.[Pt+2] [Carboplatin]; conditions: max 10 µM
In short: as §1

[10] = compound: N#Cc1cnc(Nc2cc(NC[C@H]3CNCCO3)c(C(F)(F)F)cn2)cn1 [SRA737]; conditions: max 10 µM
In short: as §1

[11] = compound: Cn1cnc2c(F)c(Nc3ccc(Br)cc3Cl)c(C(=O)NOCCO)cc21 [Selumetinib]; conditions: max 10 µM
In short: as §1

[12] = compound: Cc1c2c(nn1C)CSCc1cc(n(C)n1)CSc1cc(c3ccccc3c1)OCCCc1c(C(=O)O)n(C)c3c-2c(Cl)ccc13 [AZD5991]; conditions: max 1 µM
In short: as §1

[13] = compound: CN(C)CCCOc1ccc(-c2ccc3ncc4c(c3c2)n(C2CCOCC2)c(=O)n4C)cn1 [AZD0156]; conditions: max 3 µM
In short: as §1

[14] = compound: CC(=O)c1c(C)c2cnc(Nc3ccc(N4CCNCC4)cn3)nc2n(C2CCCC2)c1=O [Palbociclib]; conditions: max 10 µM
In short: as §1

[15] = compound: COc1cc(Nc2ncc3c(n2)-c2ccc(Cl)cc2C(c2c(F)cccc2OC)=NC3)ccc1C(=O)O [Alisertib]; conditions: max 10 µM
In short: as §1

[16] = compound: COc1cc2ncnc(Nc3ccc(F)c(Cl)c3)c2cc1OCCCN1CCOCC1 [Gefitinib]; conditions: max 10 µM
In short: as §1

[17] = compound: CC1=C(C(=CC=C1)Cl)NC(=O)C2=CN=C(S2)NC3=CC(=NC(=N3)C)N4CCN(CC4)CCO [Dasatinib]; conditions: max 2 µM
In short: as §1

[18] = compound: COc1cccc2c1C(=O)c1c(O)c3c(c(O)c1C2=O)C[C@@](O)(C(=O)CO)C[C@@H]3O[C@H]1C[C@H](N)[C@H](O)[C@H](C)O1 [Doxorubicin]; conditions: max 1 µM
In short: as §1

[19] = compound: NC1(c2ccc(-c3nc4ccn5c(=O)[nH]nc5c4cc3-c3ccccc3)cc2)CCC1 [MK-2206]; conditions: max 10 µM
In short: as §1

[20] = compound: C[C@@H](Oc1cc(-c2cnn(C3CCNCC3)c2)cnc1N)c1c(Cl)ccc(F)c1Cl [Crizotinib]; conditions: max 10 µM
In short: as §1

[21] = compound: CCc1c2c(nc3ccc(O)cc13)-c1cc3c(c(=O)n1C2)COC(=O)[C@]3(O)CC [SN-38]; conditions: max 0.3 µM
In short: as §1

[22] = compound: C[C@@H](c1ccc2nccn2c1)n1nnc2ncc(-c3cnn(C)c3)nc21 [Savolitinib]; conditions: max 1 µM
In short: as §1

[23] = compound: CS(=O)(=O)CCNCc1ccc(-c2ccc3ncnc(Nc4ccc(OCc5cccc(F)c5)c(Cl)c4)c3c2)o1 [Lapatinib]; conditions: max 10 µM
In short: as §1

[24] = compound: C[C@@H](Nc1cc(F)cc(F)c1)c1cc(C(=O)N(C)C)cc2c(=O)cc(N3CCOCC3)oc12 [AZD8186]; conditions: max 10 µM
In short: as §1

[25] = compound: CC(C)n1c(=O)n(C)c2cnc3cc(F)c(-c4ccc(OCCCN5CCCCC5)nc4)cc3c21 [AZD1390]; conditions: max 0.3 µM
In short: as §1

[26] = compound: CCN(CCO)CCCOc1ccc2c(Nc3cc(CC(=O)Nc4cccc(F)c4)[nH]n3)ncnc2c1 [AZD2811]; conditions: max 1 µM
In short: as §1

[27] = compound: O=C(Nc1ccc2[nH]nc(-c3ccncc3)c2c1)[C@@H]1CCN(CC(=O)N2CCN(c3ccc(-c4ncccn4)cc3)CC2)C1; conditions: max 5 µM
In short: as §1

[28] = compound: C1CN(CCC1(C(=O)N[C@@H](CCO)C2=CC=C(C=C2)Cl)N)C3=NC=NC4=C3C=CN4 [AZD5363]; conditions: max 10 µM
In short: as §1

[29] = compound: COc1nnc2ccc(N3CCC(c4ccc(OCCN5CCN(C)C(=O)[C@H]5C)cc4)CC3)nn12 [AZD5153]; conditions: max 1 µM
In short: as §1

[30] = compound: O=c1[nH]cc(F)c(=O)[nH]1 [5-Fluorouracil]; conditions: max 20 µM
In short: as §1

[31] = compound: CC1=CN2[C@@H](C1)C=NC3=CC(=C(C=C3C2=O)OC)OCCCCCOC4=C(C=C5C(=C4)N=C[C@@H]6CC(=CN6C5=O)C)OC [SG3199]; conditions: max 0.001 µM
In short: as §1

[32] = compound: COc1cc([C@@H]2c3cc4c(cc3[C@@H](O[C@@H]3O[C@@H]5CO[C@@H](C)O[C@H]5[C@H](O)[C@H]3O)[C@H]3COC(=O)[C@H]23)OCO4)cc(OC)c1O [Etoposide]; conditions: max 10 µM
In short: as §1

[33] = compound: COc1cccc(OCCCN)c1-c1cc(Nc2cnc(C#N)cn2)n[nH]1 [Prexasertib]; conditions: max 1 µM
In short: as §1

[34] = compound: O=C(c1cc(Cc2n[nH]c(=O)c3ccccc23)ccc1F)N1CCN(C(=O)C2CC2)CC1 [Olaparib]; conditions: max 10 µM
In short: as §1

[35] = compound: CC(=O)Nc1cccc(-n2c(=O)n(C3CC3)c(=O)c3c(Nc4ccc(I)cc4F)n(C)c(=O)c(C)c32)c1 [Trametinib]; conditions: max 1 µM
In short: as §1

| Cell Line | IC50, cell viability 72 h [1] | IC50, cell viability 72 h [2] | IC50, cell viability 72 h [3] | IC50, cell viability 72 h [4] | IC50, cell viability 72 h [5] | IC50, cell viability 72 h [6] | IC50, cell viability 72 h [7] | IC50, cell viability 72 h [8] | IC50, cell viability 72 h [9] | IC50, cell viability 72 h [10] | IC50, cell viability 72 h [11] | IC50, cell viability 72 h [12] | IC50, cell viability 72 h [13] | IC50, cell viability 72 h [14] | IC50, cell viability 72 h [15] | IC50, cell viability 72 h [16] | IC50, cell viability 72 h [17] | IC50, cell viability 72 h [18] | IC50, cell viability 72 h [19] | IC50, cell viability 72 h [20] | IC50, cell viability 72 h [21] | IC50, cell viability 72 h [22] | IC50, cell viability 72 h [23] | IC50, cell viability 72 h [24] | IC50, cell viability 72 h [25] | IC50, cell viability 72 h [26] | IC50, cell viability 72 h [27] | IC50, cell viability 72 h [28] | IC50, cell viability 72 h [29] | IC50, cell viability 72 h [30] | IC50, cell viability 72 h [31] | IC50, cell viability 72 h [32] | IC50, cell viability 72 h [33] | IC50, cell viability 72 h [34] | IC50, cell viability 72 h [35] |
| --- | --- | --- | --- | --- | --- | --- | --- | --- | --- | --- | --- | --- | --- | --- | --- | --- | --- | --- | --- | --- | --- | --- | --- | --- | --- | --- | --- | --- | --- | --- | --- | --- | --- | --- | --- |
| EFO-21 (Ovarian Carcinoma) | > 3000 nM | > 10000 nM | > 10000 nM | > 300 nM | > 3000 nM | > 10000 nM | > 1000 nM | > 1000 nM | > 10000 nM | > 10000 nM | > 10000 nM | > 1000 nM | > 3000 nM | > 10000 nM | > 10000 nM | > 10000 nM | > 2000 nM | > 1000 nM | > 10000 nM | > 10000 nM | > 300 nM | > 1000 nM | > 10000 nM | > 10000 nM | > 300 nM | > 1000 nM | > 5000 nM | > 10000 nM | > 1000 nM | > 20000 nM | > 1 nM | > 10000 nM | 101 nM | > 10000 nM | > 1000 nM |
| HAL-01 (B-Lymphoblastic Leukemia) | 327 nM | 652 nM | 360 nM | 2.47 nM | 335 nM | > 10000 nM | 496 nM | 109 nM | > 10000 nM | 528 nM | > 10000 nM | > 1000 nM | > 3000 nM | 1890 nM | 109 nM | > 10000 nM | > 2000 nM | 496 nM | 1000 nM | 2840 nM | 5.69 nM | > 1000 nM | > 10000 nM | 1130 nM | > 300 nM | > 1000 nM | > 5000 nM | > 10000 nM | 91.8 nM | > 20000 nM | > 1 nM | 2700 nM | 16.6 nM | > 10000 nM | > 1000 nM |
| KGN (Other Solid Carcinomas) | 490 nM | 2750 nM | 2320 nM | 6.01 nM | 12.8 nM | > 10000 nM | > 1000 nM | > 1000 nM | > 10000 nM | > 10000 nM | > 10000 nM | > 1000 nM | > 3000 nM | 2850 nM | 1590 nM | > 10000 nM | 167 nM | 95 nM | > 10000 nM | 4340 nM | 8.95 nM | > 1000 nM | > 10000 nM | 3860 nM | > 300 nM | 451 nM | > 5000 nM | > 10000 nM | 153 nM | > 20000 nM | > 1 nM | 2000 nM | 117 nM | > 10000 nM | 999 nM |
